Values of other authors as cited in patent publication US4477441A, “Renin inhibitors containing a C-terminal disulfide cycle” (Merck & Co., Inc., priority 1983, dated 1984).

System: hog renin
Details: nephrectomized rats after injection of hog renin; Gross et al. 1971

Substance: Pepstatin
- blood pressure in vivo: reduce blood pressure in vivo
